In publication PMC10590056, “Design and synthesis of cabotegravir derivatives bearing 1,2,3-triazole and evaluation of anti-liver cancer activity” (Frontiers in Pharmacology, 2023):
Values joined by “and” are separate entries in the source; they are usually repeats but may differ in a detail not shown here. Identical values can stand only once.

These compounds were tested on HepG2 cells (assay: MTT assay for cell proliferation and cytotoxicity, HepG2). Conditions: HepG2, 48 h, MTT.
Format: cell-based
Parameters: key to Inhibitory rate: inhibition rate = 1 - mean A490 sample/mean A490 control (fraction)
Protocol: (§1) HepG2, HeLa, MCF-7, and KYSE-30 cells were grown in a humidified incubator at 37°C with 5% CO2 in DMEM supplemented with 10% fetal bovine serum (FBS), […] streptomycin, and 100 U/mL penicillin.
(§2) When HepG2 cells reached 80% confluence, they were treated with 1 mL of trypsin and resuspended at a density of 10^5 cells/mL. Then, 100 μL of cell suspension was seeded into each well of a 96-well plate and incubated in a humidified atmosphere. The different concentrations of KJ-5 and KJ-12 (0, 1, 2, 4, 8, 16, and 32 μM) were added to each well, and the cells were further incubated for 48 h. Afterward, 20 μL of the MTT solution (5 mg/mL) was added to each well, and incubation was continued for another 4 h. The supernatant was discarded, and 200 μL of the DMSO solution was added to each well. The plate was shaken for 10 min in the dark. The absorbance values were measured at 490 nm using an enzyme-linked detector. The cell inhibition rate (%) was calculated using the following formula: (1-Mean A490 sample/Mean A490 control) × 100%.

SMILES | IC50 [µM]
COc1c2n(cc(C(=O)Nc3cccc(-c4cn(-c5cccc(F)c5)nn4)c3)c1=O)C[C@H]1OC[C@H](C)N1C2=O [KJ-6] | 7.63 ± 1.2
COc1c2n(cc(C(=O)Nc3cccc(-c4cn(-c5ccc(F)cc5)nn4)c3)c1=O)CC1OCC(C)N1C2=O (stereo not shown) [KJ-14] | 9.94 ± 0.78
COc1c2n(cc(C(=O)Nc3cccc(-c4cn(-c5ccccc5I)nn4)c3)c1=O)CC1OCC(C)N1C2=O (stereo not shown) [KJ-15] | 41.8 ± 1.22

Same assay, conditions: HepG2; fraction, per experiment

SMILES | Inhibitory rate | ODtreated/ODcontrol
COc1c2n(cc(C(=O)Nc3cccc(-c4cn(-c5cccc(F)c5)nn4)c3)c1=O)C[C@H]1OC[C@H](C)N1C2=O [KJ-6] | 0.6124 and 0.6058 and 0.5961 | 0.3876 and 0.3942 and 0.4039
COc1c2n(cc(C(=O)Nc3cccc(-c4cn(-c5ccc(F)cc5)nn4)c3)c1=O)CC1OCC(C)N1C2=O (stereo not shown) [KJ-14] | 0.5683 and 0.5455 and 0.5583 | 0.4317 and 0.4545 and 0.4417
COc1c2n(cc(C(=O)Nc3cccc(-c4cn(-c5ccccc5I)nn4)c3)c1=O)CC1OCC(C)N1C2=O (stereo not shown) [KJ-15] | 0.3617 and 0.3472 and 0.3578 | 0.6383 and 0.6528 and 0.6422

Same assay, conditions: preliminary screening, HepG2, 16 μM, 48 h, mean±SD; unit not given

SMILES | Inhibition rate (16μM), 48 h, HepG2
COc1c2n(cc(C(=O)Nc3cccc(-c4cn(-c5cccc(F)c5)nn4)c3)c1=O)C[C@H]1OC[C@H](C)N1C2=O [KJ-6] | 60.48±0.82
COc1c2n(cc(C(=O)Nc3cccc(-c4cn(-c5ccc(F)cc5)nn4)c3)c1=O)CC1OCC(C)N1C2=O (stereo not shown) [KJ-14] | 55.74±1.15
COc1c2n(cc(C(=O)Nc3cccc(-c4cn(-c5ccccc5I)nn4)c3)c1=O)CC1OCC(C)N1C2=O (stereo not shown) [KJ-15] | 35.56±0.75

The compounds below were run on KYSE-30 cells (assay: MTT assay for cell proliferation, KYSE-30). Conditions: KYSE-30, first of three experiments.
Format: cell-based
Parameters: key to Inhibitory rate: inhibition rate = 1 - mean A490 sample/mean A490 control (fraction)
Protocol: as §1, §2

SMILES | ODtreated/ODcontrol
COc1c2n(cc(C(=O)Nc3cccc(-c4cn(-c5cccc(F)c5)nn4)c3)c1=O)C[C@H]1OC[C@H](C)N1C2=O [KJ-6] | 0.3817
COc1c2n(cc(C(=O)Nc3cccc(-c4cn(-c5ccc(F)cc5)nn4)c3)c1=O)CC1OCC(C)N1C2=O (stereo not shown) [KJ-14] | 0.5122
COc1c2n(cc(C(=O)Nc3cccc(-c4cn(-c5ccccc5I)nn4)c3)c1=O)CC1OCC(C)N1C2=O (stereo not shown) [KJ-15] | 0.5987

Same assay, conditions: KYSE-30, given as fraction; first of three experiments

SMILES | Inhibitory rate
COc1c2n(cc(C(=O)Nc3cccc(-c4cn(-c5cccc(F)c5)nn4)c3)c1=O)C[C@H]1OC[C@H](C)N1C2=O [KJ-6] | 0.6183
COc1c2n(cc(C(=O)Nc3cccc(-c4cn(-c5ccc(F)cc5)nn4)c3)c1=O)CC1OCC(C)N1C2=O (stereo not shown) [KJ-14] | 0.4878
COc1c2n(cc(C(=O)Nc3cccc(-c4cn(-c5ccccc5I)nn4)c3)c1=O)CC1OCC(C)N1C2=O (stereo not shown) [KJ-15] | 0.4013

Same assay, conditions: KYSE-30, given as fraction; second of three experiments

SMILES | Inhibitory rate
COc1c2n(cc(C(=O)Nc3cccc(-c4cn(-c5cccc(F)c5)nn4)c3)c1=O)C[C@H]1OC[C@H](C)N1C2=O [KJ-6] | 0.5213
COc1c2n(cc(C(=O)Nc3cccc(-c4cn(-c5ccc(F)cc5)nn4)c3)c1=O)CC1OCC(C)N1C2=O (stereo not shown) [KJ-14] | 0.5323
COc1c2n(cc(C(=O)Nc3cccc(-c4cn(-c5ccccc5I)nn4)c3)c1=O)CC1OCC(C)N1C2=O (stereo not shown) [KJ-15] | 0.4302

Same assay, conditions: KYSE-30, given as fraction; third of three experiments

SMILES | Inhibitory rate
COc1c2n(cc(C(=O)Nc3cccc(-c4cn(-c5cccc(F)c5)nn4)c3)c1=O)C[C@H]1OC[C@H](C)N1C2=O [KJ-6] | 0.4998
COc1c2n(cc(C(=O)Nc3cccc(-c4cn(-c5ccccc5I)nn4)c3)c1=O)CC1OCC(C)N1C2=O (stereo not shown) [KJ-15] | 0.3963

Same assay, conditions: KYSE-30, second of three experiments

SMILES | ODtreated/ODcontrol
COc1c2n(cc(C(=O)Nc3cccc(-c4cn(-c5cccc(F)c5)nn4)c3)c1=O)C[C@H]1OC[C@H](C)N1C2=O [KJ-6] | 0.4787
COc1c2n(cc(C(=O)Nc3cccc(-c4cn(-c5ccc(F)cc5)nn4)c3)c1=O)CC1OCC(C)N1C2=O (stereo not shown) [KJ-14] | 0.4677
COc1c2n(cc(C(=O)Nc3cccc(-c4cn(-c5ccccc5I)nn4)c3)c1=O)CC1OCC(C)N1C2=O (stereo not shown) [KJ-15] | 0.5698

Same assay, conditions: KYSE-30, third of three experiments

SMILES | ODtreated/ODcontrol
COc1c2n(cc(C(=O)Nc3cccc(-c4cn(-c5cccc(F)c5)nn4)c3)c1=O)C[C@H]1OC[C@H](C)N1C2=O [KJ-6] | 0.5002
COc1c2n(cc(C(=O)Nc3cccc(-c4cn(-c5ccccc5I)nn4)c3)c1=O)CC1OCC(C)N1C2=O (stereo not shown) [KJ-15] | 0.6037

Same assay, conditions: preliminary screening, KYSE-30, 16 μM, 48 h, mean±SD; unit not given

SMILES | Inhibition rate (16μM), 48 h, KYSE-30
COc1c2n(cc(C(=O)Nc3cccc(-c4cn(-c5cccc(F)c5)nn4)c3)c1=O)C[C@H]1OC[C@H](C)N1C2=O [KJ-6] | 54.65±6.31
COc1c2n(cc(C(=O)Nc3cccc(-c4cn(-c5ccc(F)cc5)nn4)c3)c1=O)CC1OCC(C)N1C2=O (stereo not shown) [KJ-14] | 52.98±4.08
COc1c2n(cc(C(=O)Nc3cccc(-c4cn(-c5ccccc5I)nn4)c3)c1=O)CC1OCC(C)N1C2=O (stereo not shown) [KJ-15] | 40.93±1.83

Each compound was assayed on HeLa cells (assay: MTT assay for cell proliferation, HeLa). Conditions: Hela; fraction, per experiment.
Format: cell-based
Parameters: key to Inhibitory rate: inhibition rate = 1 - mean A490 sample/mean A490 control (fraction)
Protocol: as §1, §2

SMILES | Inhibitory rate | ODtreated/ODcontrol
COc1c2n(cc(C(=O)Nc3cccc(-c4cn(-c5cccc(F)c5)nn4)c3)c1=O)C[C@H]1OC[C@H](C)N1C2=O [KJ-6] | 0.6049 and 0.5572 and 0.5217 | 0.3951 and 0.4428 and 0.4783
COc1c2n(cc(C(=O)Nc3cccc(-c4cn(-c5ccc(F)cc5)nn4)c3)c1=O)CC1OCC(C)N1C2=O (stereo not shown) [KJ-14] | 0.494 and 0.5678 and 0.4688 | 0.506 and 0.4322 and 0.5312
COc1c2n(cc(C(=O)Nc3cccc(-c4cn(-c5ccccc5I)nn4)c3)c1=O)CC1OCC(C)N1C2=O (stereo not shown) [KJ-15] | 0.2424 and 0.3317 and 0.2684 | 0.7576 and 0.6683 and 0.7316

Same assay, conditions: preliminary screening, Hela, 16 μM, 48 h, mean±SD; unit not given

SMILES | Inhibition rate (16μM), 48 h, Hela
COc1c2n(cc(C(=O)Nc3cccc(-c4cn(-c5cccc(F)c5)nn4)c3)c1=O)C[C@H]1OC[C@H](C)N1C2=O [KJ-6] | 56.13±4.18
COc1c2n(cc(C(=O)Nc3cccc(-c4cn(-c5ccc(F)cc5)nn4)c3)c1=O)CC1OCC(C)N1C2=O (stereo not shown) [KJ-14] | 51.02±5.15
COc1c2n(cc(C(=O)Nc3cccc(-c4cn(-c5ccccc5I)nn4)c3)c1=O)CC1OCC(C)N1C2=O (stereo not shown) [KJ-15] | 28.08±4.59

The compounds below were run on MCF-7 cells (assay: MTT assay for cell proliferation, MCF-7). Conditions: MCF-7; fraction, per experiment.
Format: cell-based
Parameters: key to Inhibitory rate / Inhibition rate: inhibition rate = 1 - mean A490 sample/mean A490 control (fraction)
Protocol: as §1, §2

SMILES | Inhibitory rate | ODtreated/ODcontrol
COc1c2n(cc(C(=O)Nc3cccc(-c4cn(-c5cccc(F)c5)nn4)c3)c1=O)C[C@H]1OC[C@H](C)N1C2=O [KJ-6] | 0.5139 | 0.4861
COc1c2n(cc(C(=O)Nc3cccc(-c4cn(-c5ccc(F)cc5)nn4)c3)c1=O)CC1OCC(C)N1C2=O (stereo not shown) [KJ-14] | 0.4819 | 0.5181
COc1c2n(cc(C(=O)Nc3cccc(-c4cn(-c5ccccc5I)nn4)c3)c1=O)CC1OCC(C)N1C2=O (stereo not shown) [KJ-15] | 0.3627 | 0.6373

Same assay, conditions: given as fraction; second of three experiments

SMILES | Inhibitory rate
COc1c2n(cc(C(=O)Nc3cccc(-c4cn(-c5cccc(F)c5)nn4)c3)c1=O)C[C@H]1OC[C@H](C)N1C2=O [KJ-6] | 0.536
COc1c2n(cc(C(=O)Nc3cccc(-c4cn(-c5ccc(F)cc5)nn4)c3)c1=O)CC1OCC(C)N1C2=O (stereo not shown) [KJ-14] | 0.5123
COc1c2n(cc(C(=O)Nc3cccc(-c4cn(-c5ccccc5I)nn4)c3)c1=O)CC1OCC(C)N1C2=O (stereo not shown) [KJ-15] | 0.3633

Same assay, conditions: given as fraction; third of three experiments

SMILES | Inhibition rate
COc1c2n(cc(C(=O)Nc3cccc(-c4cn(-c5cccc(F)c5)nn4)c3)c1=O)C[C@H]1OC[C@H](C)N1C2=O [KJ-6] | 0.519
COc1c2n(cc(C(=O)Nc3cccc(-c4cn(-c5ccc(F)cc5)nn4)c3)c1=O)CC1OCC(C)N1C2=O (stereo not shown) [KJ-14] | 0.5403
COc1c2n(cc(C(=O)Nc3cccc(-c4cn(-c5ccccc5I)nn4)c3)c1=O)CC1OCC(C)N1C2=O (stereo not shown) [KJ-15] | 0.3314

Same assay, conditions: preliminary screening, MCF-7, 16 μM, 48 h, mean±SD; unit not given

SMILES | Inhibition rate (16μM), 48 h, MCF-7
COc1c2n(cc(C(=O)Nc3cccc(-c4cn(-c5cccc(F)c5)nn4)c3)c1=O)C[C@H]1OC[C@H](C)N1C2=O [KJ-6] | 52.3±1.16
COc1c2n(cc(C(=O)Nc3cccc(-c4cn(-c5ccc(F)cc5)nn4)c3)c1=O)CC1OCC(C)N1C2=O (stereo not shown) [KJ-14] | 51.15±2.92
COc1c2n(cc(C(=O)Nc3cccc(-c4cn(-c5ccccc5I)nn4)c3)c1=O)CC1OCC(C)N1C2=O (stereo not shown) [KJ-15] | 35.25±1.83

Same assay, conditions: second of three experiments

SMILES | ODtreated/ODcontrol
COc1c2n(cc(C(=O)Nc3cccc(-c4cn(-c5cccc(F)c5)nn4)c3)c1=O)C[C@H]1OC[C@H](C)N1C2=O [KJ-6] | 0.464
COc1c2n(cc(C(=O)Nc3cccc(-c4cn(-c5ccc(F)cc5)nn4)c3)c1=O)CC1OCC(C)N1C2=O (stereo not shown) [KJ-14] | 0.4877
COc1c2n(cc(C(=O)Nc3cccc(-c4cn(-c5ccccc5I)nn4)c3)c1=O)CC1OCC(C)N1C2=O (stereo not shown) [KJ-15] | 0.6367

Same assay, conditions: third of three experiments

SMILES | ODtreated/ODcontrol
COc1c2n(cc(C(=O)Nc3cccc(-c4cn(-c5cccc(F)c5)nn4)c3)c1=O)C[C@H]1OC[C@H](C)N1C2=O [KJ-6] | 0.481
COc1c2n(cc(C(=O)Nc3cccc(-c4cn(-c5ccc(F)cc5)nn4)c3)c1=O)CC1OCC(C)N1C2=O (stereo not shown) [KJ-14] | 0.4597
COc1c2n(cc(C(=O)Nc3cccc(-c4cn(-c5ccccc5I)nn4)c3)c1=O)CC1OCC(C)N1C2=O (stereo not shown) [KJ-15] | 0.6686
